This is an account of results in ChEMBL document CHEMBL3593233, “Caryophyllene sesquiterpenes from the marine-derived fungus Ascotricha sp. ZJ-M-5 by the one strain-many compounds strategy” (2014).

The test system of one assay is HL-60. Kind of assay: Growth inhibition of human HL60 cells after 72 hrs by trypan blue assay. As to conditions: HL-60, 72 h. In kind it is functional.
For a further assay, the system named is K562. Kind of assay: Growth inhibition of human K562 cells after 72 hrs by trypan blue assay. In kind it is functional. As to conditions: K562, 72 h.

For orientation: GI50 means the concentration that inhibits growth by half. On to `CC(=O)O[C@H]1C/C(C)=C/[C@@H](O)[C@H](O)[C@H]2[C@H](O)O[C@]13[C@@H]2CC3(C)C`, for which the concentration for 50% growth inhibition (GI50) in the assay on HL-60 came to 6.9 µM; in the assay with K562, 10.1 µM.
As to `CO[C@@H]1[C@H]2[C@H](O)O[C@@]3([C@@H](OC(C)=O)C/C(C)=C/[C@H]1O)[C@@H]2CC3(C)C`, the 50% growth inhibitory concentration (GI50) in the assay on HL-60 worked out at 8.5 µM; in the assay on K562 it was 12.3 µM.
Regarding `CC(=O)O[C@H]1C/C(C)=C/[C@@H](O)/C=C(/CO)[C@H]2CC(C)(C)[C@]12O`, the GI50 in the assay with HL-60 and in the assay on K562 was greater than 100 µM in each case.
